Legend:
[1] = target: T1, Cholecystokinin receptor type A (Cavia porcellus, UniProt Q63931); test: Displacement of [125I]Bolton-Hunter-CCK-8 from guinea pig pancreas Cholecystokinin type A receptor
T1 sequence (Q63931 whole entry): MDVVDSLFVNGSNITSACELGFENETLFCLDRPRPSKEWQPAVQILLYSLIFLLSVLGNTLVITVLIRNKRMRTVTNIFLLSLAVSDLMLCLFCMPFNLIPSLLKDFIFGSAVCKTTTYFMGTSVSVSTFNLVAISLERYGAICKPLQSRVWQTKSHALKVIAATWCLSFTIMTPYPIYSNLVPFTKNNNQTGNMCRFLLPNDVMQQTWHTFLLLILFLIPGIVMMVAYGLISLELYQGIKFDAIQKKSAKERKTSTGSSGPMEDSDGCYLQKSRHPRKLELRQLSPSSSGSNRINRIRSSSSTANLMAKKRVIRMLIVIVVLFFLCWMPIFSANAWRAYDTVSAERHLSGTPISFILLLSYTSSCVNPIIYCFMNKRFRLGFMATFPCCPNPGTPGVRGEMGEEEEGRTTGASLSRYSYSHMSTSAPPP

Cavia porcellus = species: Cavia porcellus; test: Compound was evaluated for its ability to stimulate PI hydrolysis in guinea pig pancreas relative to maximal response elicited by CCK-8; type: functional

Structure (SMILES)	IC50 [1] [nM]	Max response (Cavia porcellus) [%]
Cc1ccccc1NC(=O)NCCCC[C@H](NC(=O)[C@H](Cc1c[nH]c2ccccc12)NC(=O)OC(C)(C)C)C(=O)N[C@H](CNN[C@@H](Cc1ccccc1)C(N)=O)CC(=O)O	300	6.3
CC(C)(C)OC(=O)N[C@@H](Cc1c[nH]c2ccccc12)C(=O)N[C@@H](CCCCNC(=O)/C=C\c1ccc(O)cc1)C(=O)N[C@H](CNN[C@@H](Cc1ccccc1)C(N)=O)CC(=O)O	130	0
CN(C(=O)[C@H](CC(=O)O)NNC[C@H](CCCCNC(=O)/C=C\c1ccc(O)cc1)NC(=O)[C@H](Cc1c[nH]c2ccccc12)NC(=O)OC(C)(C)C)[C@@H](Cc1ccccc1)C(N)=O	250	28
CC(C)(C)OC(=O)N[C@@H](Cc1c[nH]c2ccccc12)C(=O)N[C@@H](CCCCNC(=O)/C=C\c1ccc(O)cc1)CNN[C@@H](CC(=O)O)C(=O)N[C@@H](Cc1ccccc1)C(N)=O	40	44
Cc1ccccc1NC(=O)NCCCC[C@@H](CNN[C@@H](CC(=O)O)C(=O)N(C)[C@@H](Cc1ccccc1)C(N)=O)NC(=O)[C@H](Cc1c[nH]c2ccccc12)NC(=O)OC(C)(C)C	1600	0
CC(C)(C)OC(=O)N[C@H](CNN[C@@H](CCCCNC(=O)/C=C/c1ccc(O)cc1)C(=O)N[C@@H](CC(=O)O)C(=O)N[C@@H](Cc1ccccc1)C(N)=O)Cc1c[nH]c2ccccc12	930	5.6
Cc1ccccc1NC(=O)NCCCC[C@H](NNC[C@H](Cc1c[nH]c2ccccc12)NC(=O)OC(C)(C)C)C(=O)N[C@@H](CC(=O)O)C(=O)N[C@@H](Cc1ccccc1)C(N)=O	470	8.9
CSCC[C@H](NC(=O)[C@H](Cc1c[nH]c2ccccc12)NC(=O)OC(C)(C)C)C(=O)N[C@@H](CC(=O)O)C(=O)N[C@@H](Cc1ccccc1)C(N)=O		100
CSCC[C@H](NC(=O)[C@H](Cc1ccc(OS(=O)(=O)O)cc1)NC(=O)[C@@H](N)CC(=O)O)C(=O)NCC(=O)N[C@@H](Cc1c[nH]c2ccccc12)C(=O)N[C@@H](CCSC)C(=O)N[C@@H](CC(=O)O)C(=O)N[C@@H](Cc1ccccc1)C(N)=O [SINCALIDE]		100

Source: ChEMBL document CHEMBL1126470, “Toward developing peptidomimetics: Successful replacement of backbone amide bonds in tetrapeptide-based CCK-A receptor agonists” (Bioorg Med Chem Lett, 1993)
